Patent US20250326988A1, “SELF-PRESERVED, MILD LIQUID LAUNDRY DETERGENT FORMULAS” (Henkel AG & Co. KGaA, priority 2024, published 2025)

Test system: Fungi
Assay: Micro challenge, fungi reduction
Format: cell-based
Settings: for Estimated Regression Coefficients for 7 Day: Coefficient / Estimated Regression Coefficients for 14 Day: Coefficient / Estimated Regression Coefficients for 21 Day: Coefficient / Estimated Regression Coefficients for 28 Day: Coefficient: Minitab regression of fungi log reductions; for efficacy of ingredient for log reduction as indicated by estimated regression coefficients: ethanol at day 7, sodium chloride afterwards
Description: Micro challenges were performed on Formulations 61J-L, 62A-M, […] and […] prepared in Example 1 for log reduction rates of bacteria and fungi. Bacteria were double challenged (inoculated about 1E08 to 1E09 CFU/g) and Fungi was single challenged (inoculated about 1E8 to 5E8). A. brasillienis (mold), S. aureus, E. coli, P. gergoviae/[…] mixture, P. aeruginosa, C. albicans (yeast), H. venusta were tested. Pass criteria for bacterium was greater than 3 log reduction on day 7 and 4 logs on day 28. Pass criteria for fungi was greater than 1 log reduction at 14 days with no growth observed afterwards.

| Compound | Estimated Regression Coefficients for 7 Day: Coefficient | Estimated Regression Coefficients for 14 Day: Coefficient | Estimated Regression Coefficients for 21 Day: Coefficient | Estimated Regression Coefficients for 28 Day: Coefficient | efficacy of ingredient for log reduction as indicated by estimated regression coefficients |
| --- | --- | --- | --- | --- | --- |
| CC(C(=O)O)N(CC(=O)O)CC(=O)O (centres unmarked) [MGDA, methylglycinediacetic acid] | 1.16 | 1.42 | 1.43 | 1.42 | – |
| CCO [Ethanol] | 2.24 | 3.08 | 3.22 | 3.09 | most effective log reduction |
| [Cl-].[Na+] [NaCl, sodium chloride] | 1.36 | 2.14 | 3.13 | 3.42 | comparable to ethanol's efficacy |
